Drawing on patent publication US10640495B2, “Heterocycle derivatives having TrkA inhibitory activity” (Shionogi & Co., Ltd., priority 2015, dated 2020), this text covers IC50 for 40 molecules.

Read-outs that look alike come from different tables or passages of the source. Some results are limits rather than exact numbers.

In the assay the target is human TrkA (Homo sapiens (Human), UniProt P04629). The experiment in a line: Human TrkA inhibition assay (Test Example 2). It is filed as biochemical. The procedure:
Seven point five μL per well of human TrkA (PV3144, Lifetechnologies, final concentration: 1 nmol/L) suspended in the assay buffer (100 mmol/L 4-(2-hydroxyethyl)-1-piperazineethanesulfonic acid (HEPES), 10 mmol/L magnecium chloride, 0.003 vol % Brij-35, 0.004 vol % Tween20 and 1 mmol/L dithiothreitol (DTT)) was applied in a 384 well plate and the plate was pre-incubated for 15 min at room temperature with 0.4 μL of each compound (final concentration: 200 μmol/L-1 pmol/L) dissolved in DMSO. Then, fluorescent substrate (FL-peptide 27, 760424, PerkinElmer, final concentration: 1.5 μmol/L) and ATP (final concentration 500 μmol/L) dissolved in the assay buffer was added in each well. After the incubation of 120 min at 37° C., fifteen μL of termination buffer (100 mmol/L HEPES, 40 mmol/L ethylenediaminetetraacetic acid (EDTA), 10 mmol/L magnecium chloride, 0.003 vol % Brij-35, 0.004 vol % Tween20, 1 mmol/L DTT and 0.16 vol % Coating Reagent 3) was added in each well to stop the enzyme reaction. Fluorescent intensities (FI) of phosphorylated and non-phosphorylated fluorescent substrates were measured by LabChip EZReader II (Caliper LifeSciences, Inc.), and conversion ratio (CR) was calculated by the following formula-1. The CR in the well applied with DMSO alone was used as a negative control and the CR in the well without applying TrkA was used as a positive control. The inhibitory effect of each compound on TrkA phosphorylation was calculated by the following formula-2. CR (%)=(FI of phosphorylated substrate/(FI of phosphorylated substrate+FI of non-phosphorylated substrate))×100 (Formula-1) Phosphorylation inhibition (%)=(1−(CR with compound treatment−CR of positive control)/(CR of negative control−CR of positive control))×100 (Formula-2)
IC50 values (nmol/L) were determined by the logistic regression using the inhibition data in 10 points of 3-fold dilution series at a compound concentration range of 20 nmol/L to 1 pmol/L, or 10 points of 3-fold dilution series at the range of 2 μmol/L to 0.1 nmol/L, or 10 points of 3-fold dilution series at the range of 200 μmol/L to 10 nmol/L, or 15 points of 3-fold dilution series at the range of 200 μmol/L to 0.04 nmol/L.
The evaluation results of the compounds in the present invention are indicated as follows. IC50 values of 0 to 100 nM, 100 to 1000 nM and over 1000 nM were shown as “A”, “B” and “C”, respectively.

Where [1] appears, read: human TrkA 1 nmol/L, ATP 500 μmol/L, 120 min at 37° C., read-out: IC50 values (TrkA phosphorylation inhibition).
[2] abbreviates: Table 153, human TrkA inhibition, read-out: IC50.

Chain of human TrkA (P04629 440-796): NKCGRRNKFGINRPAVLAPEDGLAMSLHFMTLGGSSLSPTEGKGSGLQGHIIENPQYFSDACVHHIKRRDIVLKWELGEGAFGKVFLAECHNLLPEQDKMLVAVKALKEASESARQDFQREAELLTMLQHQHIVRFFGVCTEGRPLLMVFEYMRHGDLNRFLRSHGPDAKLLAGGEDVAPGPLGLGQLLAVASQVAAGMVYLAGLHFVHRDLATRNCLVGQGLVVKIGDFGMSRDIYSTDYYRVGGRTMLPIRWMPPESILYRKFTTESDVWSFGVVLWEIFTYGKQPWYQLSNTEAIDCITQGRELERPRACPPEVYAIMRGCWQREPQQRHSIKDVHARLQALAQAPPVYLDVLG

A word on the IC50: it is the concentration that inhibits the measured activity by half. For the molecule `COCCN1C[C@@H](NC(=O)Nc2c(C)c(-c3ccc(N=S(C)(C)=O)nc3)nn2-c2ccccc2)[C@H](c2ccc(F)c(F)c2)O1` (racemic) [Compound I-66], under setting [1], the IC50 worked out at 1.6 nM.
As for `COCCN1C[C@@H](NC(=O)Nc2c(C)c(-c3cnc4c(cnn4C)c3)nn2-c2ccccc2)[C@H](c2cnc(F)c(F)c2)O1` (racemic) [Compound I-67], the 50% inhibitory concentration (IC50) under setting [2] is under 100 nM.
The same measure, in the same setting: in the case of `CCOc1ncc(-c2nn(-c3ccccc3)c(NC(=O)N[C@@H]3CN(CCOC)O[C@H]3c3cnc(F)c(F)c3)c2C)cn1` (racemic) [Compound I-68] it was under 100 nM.
For `COCCN1C[C@@H](NC(=O)Nc2c(C)c(-c3cnc4c(c3)ncn4C)nn2-c2ccccc2)[C@H](c2cnc(F)c(F)c2)O1` (racemic) [Compound I-69], under setting [2], the 50% inhibitory concentration (IC50) is under 100 nM.
Still for that read-out and setting: in the case of `COCCN1C[C@@H](NC(=O)Nc2c(C)c(-c3cnc(C4CC4)nc3)nn2-c2ccccc2)[C@H](c2cnc(F)c(F)c2)O1` (racemic) [Compound I-70] it was under 100 nM; in that of `COCCN1C[C@@H](NC(=O)Nc2c(C)c(-c3cc(C)c(=O)n(C)c3)nn2-c2ccccc2)[C@H](c2cnc(F)c(F)c2)O1` (racemic) [Compound I-71], under 100 nM.
In the case of `COCCN1C[C@@H](NC(=O)Nc2c(C)c(-c3cnc4c(c3)ncn4C)nn2-c2ccccc2)[C@H](c2ccc(F)c(F)c2)O1` (racemic) [Compound I-72], the IC50 under setting [2] is under 100 nM.
For `CNC(=O)c1cc(-c2nn(-c3ccccc3)c(NC(=O)N[C@@H]3CN(CCOC)O[C@H]3c3cnc(F)c(F)c3)c2C)cnc1OC` (racemic) [Compound I-73], the IC50 under setting [1] turned out to be 1.2 nM.
For `COCCN1C[C@@H](NC(=O)Nc2c(C)c(-c3cc(C(=O)NC4CCOCC4)c(=O)n(C)c3)nn2-c2ccccc2)[C@H](c2cnc(F)c(F)c2)O1` (racemic) [Compound I-74], the half-maximal inhibitory concentration (IC50) under setting [2] is under 100 nM.
Still for that read-out and setting: in the case of `CNC(=O)c1cc(-c2nn(-c3ccccc3)c(NC(=O)N[C@@H]3CN(CCOC)O[C@H]3c3cnc(F)c(F)c3)c2C)cn(C)c1=O` (racemic) [Compound I-75] it was under 100 nM; in that of `COCCN1C[C@@H](NC(=O)Nc2c(C)c(-c3ccnc(C(=O)OCc4ccccc4)c3)nn2-c2ccccc2)[C@H](c2ccc(F)c(F)c2)O1` (racemic) [Compound I-76], under 100 nM.
Consider `COCCN1C[C@@H](NC(=O)Nc2c(C)c(-c3ccnc(N=S(C)(C)=O)c3)nn2-c2ccccc2)[C@H](c2ccc(F)c(F)c2)O1` (racemic) [Compound I-77], for which the 50% inhibitory concentration (IC50) under setting [2] is under 100 nM.
For `COCCN1C[C@@H](NC(=O)Nc2c(C)c(-c3cnc4c(c3)nc(CO)n4C)nn2-c2ccccc2)[C@H](c2ccc(F)c(F)c2)O1` (racemic) [Compound I-78], the IC50 under setting [2] is under 100 nM.
As to `COCCN1C[C@@H](NC(=O)Nc2c(C)c(-c3cnc4c(c3)c(=O)n(C)n4C)nn2-c2ccccc2)[C@H](c2cnc(F)c(F)c2)O1` (racemic) [Compound I-79], the half-maximal inhibitory concentration (IC50) under setting [1] turned out to be 1.5 nM.
`COCCN1C[C@@H](NC(=O)Nc2c(C)c(-c3cc(COC(C)=O)c(=O)n(C)c3)nn2-c2ccccc2)[C@H](c2cnc(F)c(F)c2)O1` (racemic) [Compound I-80]: under setting [2], the half-maximal inhibitory concentration (IC50) is under 100 nM.
`COCCN1C[C@@H](NC(=O)Nc2c(C)c(-c3cc(CO)c(=O)n(C)c3)nn2-c2ccccc2)[C@H](c2cnc(F)c(F)c2)O1` (racemic) [Compound I-81]: the IC50 under setting [2] is under 100 nM.
Consider `COCCN1C[C@@H](NC(=O)Nc2c(C)c(-c3cnc4c(c3)c(CO)nn4C)nn2-c2ccccc2)[C@H](c2cnc(F)c(F)c2)O1` (racemic) [Compound I-84], for which the IC50 under setting [2] is under 100 nM.
Regarding `COCCN1C[C@@H](NC(=O)Nc2c(C)c(-c3cncc(N=S(C)(C)=O)c3)nn2-c2ccccc2)[C@H](c2ccc(F)c(F)c2)O1` (racemic) [Compound I-85], the half-maximal inhibitory concentration (IC50) under setting [2] was under 100 nM.
In the case of `COCCN1C[C@@H](NC(=O)Nc2c(C)c(-c3cnn(C)c3)nn2-c2ccc(F)c(F)c2)[C@H](c2ccc(F)c(F)c2)O1` (racemic) [Compound I-86], the IC50 under setting [2] was under 100 nM.
Take `COCCN1C[C@@H](NC(=O)Nc2c(C)c(-c3cnn(C)c3)nn2-c2ccc(F)cc2)[C@H](c2ccc(F)c(F)c2)O1` (racemic) [Compound I-87]: the half-inhibitory concentration (IC50) under setting [2] is under 100 nM.
The same measure, in the same setting: in the case of `COCCN1C[C@@H](NC(=O)Nc2c(C)c(-c3cnn(C)c3)nn2C2CC2)[C@H](c2ccc(F)c(F)c2)O1` (racemic) [Compound I-88] it was over 1000 nM.
Still for that read-out and setting: in the case of `COCCN1C[C@@H](NC(=O)Nc2c(C)c(-c3cccc(N=S(C)(C)=O)c3)nn2-c2ccccc2)[C@H](c2ccc(F)c(F)c2)O1` (racemic) [Compound I-89] it was under 100 nM; in that of `COCCN1C[C@@H](NC(=O)Nc2c(C)c(-c3cnn(C)c3)nn2-c2ccccc2)[C@H](c2ccnc(F)c2)O1` (racemic) [Compound I-91], under 100 nM; in that of `COCCN1C[C@@H](NC(=O)Nc2c(C)c(-c3cnc(N=S(C)(C)=O)c(C)c3)nn2-c2ccccc2)[C@H](c2ccc(F)c(F)c2)O1` (racemic) [Compound I-92], under 100 nM.
Still for that read-out and setting: in the case of `CNc1ncc(-c2nn(-c3ccccc3)c(NC(=O)N[C@@H]3CN(CCOC)O[C@H]3c3ccnc(F)c3)c2C)cn1` (racemic) [Compound I-93] it was under 100 nM; in that of `COCCN1C[C@@H](NC(=O)Nc2cc(-c3cnc(OC)c(C(=O)NC4CCOCC4)c3)nn2C)[C@H](c2ccnc(F)c2)O1` (racemic) [Compound I-94], over 1000 nM.
In the case of `CNC(=O)c1cc(-c2cc(NC(=O)N[C@@H]3CN(CCOC)O[C@H]3c3ccnc(F)c3)n(C)n2)cnc1OC` (racemic) [Compound I-95], under setting [2], the IC50 was over 1000 nM.
For `COCC[C@@H]1C[C@@H](NC(=O)Nc2c(C)c(-c3cnc(C)nc3)nn2-c2ccccc2)[C@H](c2ccnc(F)c2)O1` (racemic) [Compound I-96], under setting [1], the IC50 was found to be 15 nM.
Take `COCC[C@@H]1C[C@@H](NC(=O)Nc2c(C)c(-c3cnc4c(cnn4C)c3)nn2-c2ccccc2)[C@H](c2ccnc(F)c2)O1` (racemic) [Compound I-97]: the IC50 under setting [2] was under 100 nM.
In the case of `COCC[C@@H]1C[C@@H](NC(=O)Nc2c(C)c(-c3cnc4c(cnn4C)c3)nn2-c2ccccc2)[C@H](c2ccc(F)c(F)c2)O1` (racemic) [Compound I-99], the half-maximal inhibitory concentration (IC50) under setting [2] was under 100 nM.
Turning to `CNC(=O)c1cc(-c2nn(-c3ccccc3)c(NC(=O)N[C@@H]3CN(CCOC)O[C@H]3c3ccnc(F)c3)c2C)cnc1OC` (racemic) [Compound I-100], the IC50 under setting [2] is under 100 nM.
Consider `COCCN1C[C@@H](NC(=O)Nc2c(C)c(-c3cnc(OC)c(C(N)=O)c3)nn2-c2ccccc2)[C@H](c2cnc(F)c(F)c2)O1` (racemic) [Compound I-101], for which the IC50 under setting [2] was under 100 nM.
Same read-out and setting: in the case of `COCCN1C[C@@H](NC(=O)Nc2c(C)c(-c3cnc(OC)c(C(N)=O)c3)nn2-c2ccccc2)[C@H](c2cnc(OC)c(F)c2)O1` (racemic) [Compound I-102] it was under 100 nM; in that of `COCCN1C[C@@H](NC(=O)Nc2c(C)c(-c3cnc(OC)c(C(=O)NC4CCS(=O)(=O)CC4)c3)nn2-c2ccccc2)[C@H](c2cnc(F)c(F)c2)O1` (racemic) [Compound I-103], under 100 nM.
Same read-out and setting: in the case of `COCCN1C[C@@H](NC(=O)Nc2c(C)c(-c3cnc(OC)c(C(=O)NC4CCS(=O)(=O)CC4)c3)nn2-c2ccccc2)[C@H](c2cnc(OC)c(F)c2)O1` (racemic) [Compound I-104] it was under 100 nM; in that of `COCCN1C[C@@H](NC(=O)Nc2c(C)c(-c3cc(C(N)=O)c(=O)n(C)c3)nn2-c2ccccc2)[C@H](c2ccnc(F)c2)O1` (racemic) [Compound I-105], under 100 nM; in that of `CNC(=O)c1cc(-c2nn(-c3ccccc3)c(NC(=O)N[C@@H]3CN(CCOC)O[C@H]3c3ccnc(F)c3)c2C)cn(C)c1=O` (racemic) [Compound I-106], under 100 nM.
For `CCNC(=O)c1cc(-c2nn(-c3ccccc3)c(NC(=O)N[C@@H]3CN(CCOC)O[C@H]3c3ccnc(F)c3)c2C)cn(C)c1=O` (racemic) [Compound I-107], under setting [2], the IC50 was under 100 nM.
For the molecule `COCCN1C[C@@H](NC(=O)Nc2c(C)c(-c3cc(C(=O)NC4CCOCC4)c(=O)n(C)c3)nn2-c2ccccc2)[C@H](c2ccnc(F)c2)O1` (racemic) [Compound I-108], the IC50 under setting [1] was determined as 1 nM.
As to `COCCN1C[C@@H](NC(=O)Nc2c(C)c(-c3cnc(OC)c(C(N)=O)c3)nn2-c2ccccc2)[C@H](c2ccnc(F)c2)O1` (racemic) [Compound I-109], the IC50 under setting [2] was under 100 nM.
